Laboratory results from paper PMC5686756, “IKKγ-Mimetic Peptides Block the Resistance to Apoptosis Associated with Kaposi's Sarcoma-Associated Herpesvirus Infection” (Journal of Virology, 2017).
Positions of bridges follow the written chain, without caps; N, C: chain ends. Non-standard residues stand in square brackets, D forms with d. Residues, ends and D or L forms follow the SMILES beside them. S5 = C=CCCC[C@](C)(N)C(=O)O

Assays:
Jurkat cells = experiment: Cell viability assay (trypan blue), Jurkat cells; assay type: cell-based, human; conditions: for rescue of Jurkat cell survival by WT ks-vFLIP: FADD/ATG3 siRNA Jurkat cells overexpressing WT ks-vFLIP; for protection by ks-vFLIP, IKKγ-null cells: Jurkat cells null for IKKγ; for protection by A57L ks-vFLIP mutant against induced apoptosis: Jurkat cells with A57L ks-vFLIP; for Jurkat cell survival, FADD or ATG3 silenced or IKKγ null: no ks-vFLIP rescue, FADD siRNA, ATG3 siRNA
Source text: Although it has been established that dysregulated activation of the canonical NF-κB pathway by ks-vFLIP renders mouse embryonic fibroblasts resistant to apoptosis induced by TNF-α ([12]), we sought to ascertain whether ks-vFLIP expression also prevents cell death induced by ETO. Unlike TNF-α, which instigates death receptor signaling, ETO, a topoisomerase II inhibitor, initiates cell death through the generation of DNA double-strand breaks ([20]). […] We next investigated the potential involvement of death-inducing signaling complex (DISC) formation and autophagy since ks-vFLIP has been cited (somewhat controversially) to interact with procaspase 8, an […] whose activation requires the adaptor protein FADD ([21]), and to physically associate with the ubiquitin-like conjugating enzyme ATG3, which is essential for the formation of autophagosomes ([11]). Viability assays were therefore conducted using Jurkat cells in which FADD and ATG3 were silenced (using small interfering RNA [siRNA]) together with those null for IKKγ in the presence of both ETO and TNF-α (Fig. 1C and D).
Lentiviral vectors expressing GST or GST fusion peptides together with green fluorescent protein (GFP), CherryFP, WT vFLIP, or vFLIPA57L (a mutant which fails to bind IKKγ) were produced as previously described ([19]). […] In each case, lentiviral vector doses were used to ensure that over 95% of cells were positive for the relevant fluorescent protein. The anti-FADD antibody used for immunoblots was purchased from BD Biosciences, and those for anti-ATG3 and anti-glyceraldehyde-3-phosphate dehydrogenase (anti-GAPDH) were from Cell Signaling Technology. Jurkat cells and their IKKγ-null derivatives were obtained from Alain Israel, Institute Pasteur, and verified as human T cells by surface CD3 staining.
(§1) The transfected cells, the human B cell lines BC3, BCP-1, and DG75 (a […] negative for KSHV and Epstein-Barr virus [EBV]) were treated with human TNF-α (PeproTech or Alomone Labs), ETO (Sigma), spIKKγ (encompassing IKKγ residues 230 to 248; see Fig. 3 for structure), or combinations of spIKKγ with either TNF-α or ETO. Cell survival was determined after 24 and 48 h by trypan blue staining and counting with a hemocytometer. Cell viability is expressed as a percentage of the number of viable cells per culture at the start of each experiment. […] Significance difference was calculated by two-way analysis of variance (ANOVA) with Fisher's least significant difference (LSD) posttest.

BC3 cells = assay type: cell-based, human; conditions: for BC3 cell death, agent individually: TNF-α or ETO alone
Method: (§2) Given their profound impact on NF-κB activation, we next assessed whether IKKγ-mimetic peptides could sensitize BC3 cells to TNF-α and ETO and thus stimulate cell death. To investigate this in cellulo, BC3 cells were transduced with the GST-IKKγ peptide vector prior to treatment with TNF-α or ETO, and after 24 h, their viabilities were assessed. As a control, similar trials were conducted but with GST-IKKγDM, which harbors the same peptide containing the F238R D242R IKKγ double mutations previously shown to impair ks-vFLIP binding and consequently NF-κB activation ([27]). […] We also determined whether spIKKγ could have a similar effect. Owing to the presence of the aliphatic linker and overall positive charge (+0.1), we reasoned that spIKKγ was likely to be cell permeable based on studies involving a diverse range of unrelated stapled peptides ([28][–][32]). […] The effects of SPIKKγ were also investigated on BCP-1 cells, an additional PEL cell line.
Lentiviral vectors expressing GST or GST fusion peptides together with green fluorescent protein (GFP), CherryFP, WT vFLIP, or vFLIPA57L (a mutant which fails to bind IKKγ) were produced as previously described ([19]). […] In each case, lentiviral vector doses were used to ensure that over 95% of cells were positive for the relevant fluorescent protein. […]
as §1

DG75 cells = experiment: Cell viability assay (trypan blue), DG75 cells; assay type: cell-based, human
Method: as §2
BC3, BCP-1, and DG75 cells were purchased for this study from the American Type Culture Collection (ATCC). They were verified as human B cell lines by surface staining for human Ig.
as §1

GB1–ks-vFLIP = target: T1, GB1–ks-vFLIP (Human herpesvirus 8 type P, UniProt F5HEZ4); experiment: biochemical; assay type: binding, Kaposi's sarcoma-associated herpesvirus
T1 construct: ks-vFLIP (residues 1 to 188) was PCR cloned into the EcoRI and XhoI sites of GB1-pBR22b; 6His (C); made in house; host or cells: E. coli BL21(DE3)
Method: We next sought to assess the affinity of spIKKγ for vFLIP using isothermal calorimetry (ITC).
Isothermal calorimetry (ITC) experiments were performed using a Microcal VP-ITC micocalorimeter (MicroCal). For all binding reactions, syringe concentrations varied between ∼85 and 100 μM for IKKγ(150–272) and cell concentrations between ∼8 and 10 μM for GB1-vFLIP. Titrations consisted of an initial 2-μl injection, followed by 20 10-μl injections with stirring at 300 rpm. In competition assays, GB1–ks-vFLIP was first incubated with 20 μM spIKKγ and DMSO to 4% prior to loading into the cell and titration with IKKγ(150–272). All ITC binding experiments were performed in deionized water at 25°C owing to the buffer constraints of spIKKγ, GB1–ks-vFLIP, and IKKγ(150–272), where GB1–ks-vFLIP and IKKγ(150–272) were buffer matched by overnight dialysis, followed by the addition of 4% DMSO to each. […] Following collection, all data were analyzed using ORIGIN 70 software and fitted to a one-site binding model with each experiment performed at least in triplicate.

| Molecule | rescue by WT ks-vFLIP, ATG3 siRNA (Jurkat cells; ATG3 siRNA Jurkat cells, ETO) | Jurkat cell survival, null for ks-vFLIP (Jurkat cells; ETO 50 μM, cells null for ks-vFLIP) | Jurkat cell survival with ks-vFLIP (Jurkat cells; ETO 50 μM, ks-vFLIP-expressing cells) | rescue of Jurkat cell survival by WT ks-vFLIP (Jurkat cells) | protection by ks-vFLIP, IKKγ-null cells (Jurkat cells) | protection by A57L ks-vFLIP mutant against induced apoptosis (Jurkat cells) | Jurkat cell survival, FADD or ATG3 silenced or IKKγ null (Jurkat cells) | BC3 cell death, agent individually (BC3 cells) | DG75 viability at 48 h, ETO (or ETO plus spIKKγ) (DG75 cells; Fig. 5E, 48 h) | DG75 sensitivity to ETO (DG75 cells; after 48 h) | Ki (GB1–ks-vFLIP) [µM] | IC50 (BC3 cells; spIKKγ alone, after 24 h, trypan blue, triplicate independent experiments, read-out: 50% inhibitory concentration (IC50), BC3 viability) [µM] | solubility in aqueous solutions | Jurkat cell survival, trend versus ETO (Jurkat cells; TNF-α, various concentrations, with and without ks-vFLIP) | DG75 viability, control experiment (DG75 cells; Fig. 5E, spIKKγ or TNF-α alone or in combination, 24 and 48 h) |
| --- | --- | --- | --- | --- | --- | --- | --- | --- | --- | --- | --- | --- | --- | --- | --- |
| COc1cc([C@@H]2c3cc4c(cc3[C@@H](O[C@@H]3O[C@@H]5CO[C@@H](C)O[C@H]5[C@H](O)[C@H]3O)[C@H]3COC(=O)[C@H]23)OCO4)cc(OC)c1O [ETO, etoposide] | to a lesser degree | severely compromised | only moderately reduced | could to a large extent be rescued | completely refractory to the protective effects of ks-vFLIP | could not protect cells against apoptosis | severely compromised in all three scenarios | negligible effects individually | significant reduction in viability | Considerable sensitivity |  |  |  |  |  |
| CC[C@H](C)[C@H](NC(=O)[C@H](Cc1c[nH]cn1)NC(=O)[C@H](CC(N)=O)NC(=O)[C@H](CC(=O)O)NC(=O)[C@H](Cc1ccc(O)cc1)NC(=O)[C@]1(C)CCCC=CCCC[C@](C)(NC(=O)[C@H](Cc2c[nH]cn2)NC(=O)[C@H](Cc2ccc(O)cc2)NC(=O)[C@H](C)NC(=O)[C@@H](NC(=O)[C@H](CCC(N)=O)NC(=O)[C@H](CC(C)C)NC(C)=O)C(C)C)C(=O)N[C@@H](CC(C)C)C(=O)N[C@@H](Cc2ccccc2)C(=O)N[C@@H](CCC(N)=O)C(=O)N1)C(=O)N[C@@H](CCCCN)C(=O)N[C@@H](CO)C(=O)N[C@@H](CO)C(=O)N[C@@H](CS)C(N)=O [spIKKγ] (Ac-LQVAYH[S5]LFQ[S5]YDNHIKSSC-NH2; staple 7-11) |  |  |  |  |  |  |  |  |  |  | 0.257 | ~75 | poor solubility |  |  |
| TNF-α |  |  |  | could to a large extent be rescued | completely refractory to the protective effects of ks-vFLIP | could not protect cells against apoptosis | severely compromised in all three scenarios | negligible effects individually |  |  |  |  |  | closely mirror the trend | failed to have a negative impact |
